Source: US9604931B2, “Nuclear receptor binding agents” (GTx, Inc., priority 2007, dated 2017)
Entries after “also recorded” stand apart in the source; their conditions may differ. Where two headings read alike, the source gives them in different places.

Assays:
[1] = target: ERβ ligand binding domain (Homo sapiens, UniProt Q92731); assay: Competitive [3H]-estradiol binding assay, ER-β (Example 21); conditions: for inhibition at 0.1 µM: read-out: Percent Inhibition of [3H]-Estradiol Binding to ER-β; for Ki: read-out: ER-β binding constant (Ki)
ERβ ligand binding domain, sequence (Q92731 whole entry, looked up, the tested form may be a part): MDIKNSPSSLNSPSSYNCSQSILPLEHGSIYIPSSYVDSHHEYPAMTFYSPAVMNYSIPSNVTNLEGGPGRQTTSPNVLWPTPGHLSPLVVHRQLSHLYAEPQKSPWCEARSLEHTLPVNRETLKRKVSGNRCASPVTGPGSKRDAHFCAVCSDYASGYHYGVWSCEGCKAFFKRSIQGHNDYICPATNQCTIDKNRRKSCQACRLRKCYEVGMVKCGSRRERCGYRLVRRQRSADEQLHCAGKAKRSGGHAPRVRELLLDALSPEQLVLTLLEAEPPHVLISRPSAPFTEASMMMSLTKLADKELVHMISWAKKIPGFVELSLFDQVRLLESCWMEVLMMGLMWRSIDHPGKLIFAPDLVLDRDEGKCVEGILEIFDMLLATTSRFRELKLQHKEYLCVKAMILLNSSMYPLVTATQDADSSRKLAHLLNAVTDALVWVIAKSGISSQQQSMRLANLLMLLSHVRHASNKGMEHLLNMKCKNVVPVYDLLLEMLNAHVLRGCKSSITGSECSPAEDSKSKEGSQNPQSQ
Experimental: (§1) ER binding affinity was determined via one of the following methods:
(§2) Briefly, the incubation mixture was filtered through a high affinity protein binding filter, and washed several times to remove any unbound radioactivity. The filter plate was air dried and sealed on the bottom.
(§3) Nonspecific binding was subtracted from total binding to yield specific binding.

[2] = target: ERα ligand binding domain (Homo sapiens, UniProt P03372); assay: Competitive [3H]-estradiol binding assay, ER-α (Example 21); conditions: for inhibition at 0.1 µM: 100 nM of compound, read-out: Percent Inhibition of [3H]-Estradiol Binding to ER-α; for Ki: read-out: ER-α binding constant (Ki)
ERα ligand binding domain, sequence (P03372 whole entry, looked up, the tested form may be a part): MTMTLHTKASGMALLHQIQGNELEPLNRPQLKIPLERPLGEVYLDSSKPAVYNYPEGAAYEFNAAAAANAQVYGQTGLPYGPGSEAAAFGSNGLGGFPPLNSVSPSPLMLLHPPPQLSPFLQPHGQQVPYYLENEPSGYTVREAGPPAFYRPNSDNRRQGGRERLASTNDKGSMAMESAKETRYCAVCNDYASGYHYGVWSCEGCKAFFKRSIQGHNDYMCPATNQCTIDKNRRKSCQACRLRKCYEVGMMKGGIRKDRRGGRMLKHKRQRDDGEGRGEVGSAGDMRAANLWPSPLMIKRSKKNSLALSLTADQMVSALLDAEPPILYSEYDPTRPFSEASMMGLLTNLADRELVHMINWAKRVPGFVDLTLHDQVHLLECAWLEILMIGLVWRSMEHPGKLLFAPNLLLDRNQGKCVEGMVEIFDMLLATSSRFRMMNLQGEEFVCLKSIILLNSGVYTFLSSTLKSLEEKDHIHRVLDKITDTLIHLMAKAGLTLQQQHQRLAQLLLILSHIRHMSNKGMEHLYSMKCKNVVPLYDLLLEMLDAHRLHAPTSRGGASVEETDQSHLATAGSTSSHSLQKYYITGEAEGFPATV
Experimental: as §1, §2, §3

[3] = target: ER-β (Rattus norvegicus (Rat), UniProt Q62986); assay: ER-β transactivation (ERE-LUC) in COS or 293 cells; format: cell-based; conditions: for activation at 0.1 µM: HEK293, 48 h
ER-β, sequence (Q62986 whole entry): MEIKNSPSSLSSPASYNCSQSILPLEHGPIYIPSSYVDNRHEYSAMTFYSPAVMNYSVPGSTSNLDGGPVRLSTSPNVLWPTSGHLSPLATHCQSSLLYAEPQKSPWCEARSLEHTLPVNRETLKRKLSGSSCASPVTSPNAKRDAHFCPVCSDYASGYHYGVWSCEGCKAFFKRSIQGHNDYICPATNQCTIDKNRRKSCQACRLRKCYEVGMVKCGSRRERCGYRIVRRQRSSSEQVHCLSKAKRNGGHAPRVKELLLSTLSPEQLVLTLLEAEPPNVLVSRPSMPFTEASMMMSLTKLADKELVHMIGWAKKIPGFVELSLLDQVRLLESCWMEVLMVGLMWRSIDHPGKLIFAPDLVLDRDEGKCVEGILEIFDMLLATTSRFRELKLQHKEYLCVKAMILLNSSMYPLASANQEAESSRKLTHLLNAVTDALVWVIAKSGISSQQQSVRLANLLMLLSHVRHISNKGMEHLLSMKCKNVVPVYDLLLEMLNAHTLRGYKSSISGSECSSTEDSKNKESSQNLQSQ

[4] = target: ER-α (Rattus norvegicus (Rat), UniProt P06211); format: cell-based; conditions: 100 nM compound compared to 1 nM estradiol
Experimental: COS or 293 cells were plated in DME without phenol red+10% cs FBS at 90,000 cells per well in 24 well plates, and were transfected with 0.25 μg of the vector “ERE-LUC”, where a firefly luciferase gene was driven by two estrogen responsive elements and 0.02 μg of the control CMV-LUC, Renilla where a luciferase gene was driven by a CMV promoter. […] All the receptors were cloned from rat tissue into the PCR3.1 vector backbone. Twenty four hours post transfection, cells were treated with compounds of this invention, estrogen, DHT, and other NRBAs or combinations thereof. Cells were harvested 48 hrs after transfection, and assayed for firefly and Renilla luciferase activity.

[5] = tested on: rat aorta rings; assay: Rat aortic ring relaxation; conditions: 10^-6 PE constriction; for EC50: Rattus norvegicus
Description: Experimental protocol. Equipment used in these studies included a 4-tissue bath system with reservoirs and circulators (RadnotiGlass Technology, Monrovia, Calif.), DSI/Ponemah tissue force analyzer 7700 (Valley View, Ohio), and iWorx/CB Sciencesforce transducers FT-302. The 250 g rats were anesthetized with isoflurane to produce deep anesthesia. The chest of the rat was opened, and about 3 cm length of aorta was removed and placed in a Petri dish containing room temperature Krebs salt solution (KSS, in mM: 120 NaCl, 5 KCl, 1.2 MgSO4.7H20, 2.5 CaCl2.2H2O, 1 KH2PO4, 25 NaHCO3, and 11 glucose). Fat and connective tissue were removed from the aorta taking care not to stretch the vessel. The aorta was then divided into 3-mm-wide rings. Triangular wire holders were inserted through the lumen of the vessel and connected to the force transducer and tissue holder rod in the vessel bath.
Analog-to-digital conversions of force waveforms were accomplished with a DSI/Ponemah tissue force analyzer 7700. The converted data were automatically analyzed with Ponemah Physiology-Smooth Muscle software. All data are summarized as means±standard error. Differences between means were assessed by a conventional ANOVA. This was followed by Student's test. P<0.05 was considered to be statistically significant.
The tension on the rings was adjusted to 1.0 g passive force using the tension adjustment dial for each transducer and allowed to equilibrate for 60 min in the bath with a 95% O2-5% CO2 gas mixture. The rings were washed with fresh buffer every 20 min. Passive force was readjusted to 1.0 g as needed during this period. When rings were stable at 1.0 g of passive force, the baseline was calculated.
Phenylephrine (PE) at a final concentration of […] was added to the bath to contract the ring, and force was allowed to stabilize for 10 min. Then acetylcholine (ACH) at a final concentration of 10^−5 M was added to the precontracted rings to test for endothelial integrity […]. After the initial test for vessel viability and endothelial integrity, the rings were washed three times for 10 min with buffer, allowing it to equilibrate to active force stabilized at 1 g.
Cumulative concentration-response curves to NRBAs were created by increasing the NRBAs concentration in the tissue bath by successive addition of appropriate dilutions of stock solutions to achieve final bath concentrations of 300 nM to 0.15 mM NRBAs.
Table 10 summarizes EC50 values and maximal % decrease of the 10^−6 PE constriction of the aortic ring for individual NRBAs tested

[6] = tested on: Rat Aortic Smooth Muscle Cells (RASMC); assay: RASMC cell proliferation assay (WST-1); format: cell-based; conditions: for EC50: inhibitory effect sigmoid Emax model, read-out: EC50 for inhibition of RASMC proliferation; for Proliferation of RASMC: concentration between 10-30 μM
Experimental: EC50 values were calculated using WinNonLin 5.0.1 using the inhibitory effect sigmoid Emax model.

[7] = tested on: ARPE-19 cells; assay: Fluorescent detection of intracellular ROS; format: cell-based, Human; conditions: 150 μM tBH
Description: Cells were allowed to adhere overnight. […] Removed and washed cells once with HBSS. […] Each drug concentration was done in triplicates.

[8] = read-out: Estradiol activity at 100 nM of NRBA, ER-β

O=c1c2ccc(O)cc2c(Br)cn1-c1ccc(O)c(F)c1 [12d, 4-bromo-2-(3-fluoro-4-hydroxyphenyl)-6-hydroxy-isoquinolin-1(2H)-one]
inhibition at 0.1 µM [1]: 38.7%
inhibition at 0.1 µM [2]: 0%

O=c1c2ccc(O)cc2c(Cl)cn1-c1ccc(O)cc1 [12f, 4-chloro-6-hydroxy-2-(4-hydroxyphenyl)-isoquinolin-1(2H)-one]
Ki Ratio (ER-α/ER-β) [1]: 61
inhibition at 0.1 µM [1]: 47.5%
ER-β agonist activity [3]: ER-β agonist activity
inhibition at 0.1 µM [2]: 0%

O=c1c2ccc(O)cc2c(Cl)cn1-c1ccc(O)c(F)c1 [12g, 4-chloro-2-(3-fluoro-4-hydroxyphenyl)-6-hydroxy-isoquinolin-1(2H)-one]
inhibition at 0.1 µM [1]: 29.4%
inhibition at 0.1 µM [2]: 0%

O=c1c2ccc(O)cc2c(I)cn1-c1ccc(O)cc1 [12h, 6-hydroxy-2-(4-hydroxyphenyl)-4-iodoisoquinolin-1(2H)-one]
Ki Ratio (ER-α/ER-β) [1]: 22
inhibition at 0.1 µM [1]: 40.5%
ER-β agonist activity [3]: ER-β agonist activity
inhibition at 0.1 µM [2]: 7.7%

O=c1c2c(O)cc(O)cc2ccn1-c1ccc(O)cc1 [12l, 6,8-dihydroxy-2-(4-hydroxyphenyl)-isoquinolin-1(2H)-one]
inhibition at 0.1 µM [1]: 34.4%
inhibition at 0.1 µM [2]: 2.5%

O=c1c2c(O)cc(O)c(Br)c2ccn1-c1ccc(O)cc1 [12m, 5-bromo-6,8-dihydroxy-2-(4-hydroxyphenyl)isoquinolin-1(2H)-one]
inhibition at 0.1 µM [1]: 0%
inhibition at 0.1 µM [2]: 5.2%

O=c1c2ccc(O)cc2c(I)cn1-c1ccc(O)c(F)c1 [12n, 2-(3-fluoro-4-hydroxyphenyl)-6-hydroxy-4-iodoisoquinolin-1(2H)-one]
inhibition at 0.1 µM [1]: 8.7%
inhibition at 0.1 µM [2]: 6.2%

Oc1ccc(-n2ccc3cc(O)cc(O)c3c2=S)cc1 [12p, 2-(4-hydroxyphenyl)-6,8-dihydroxy-isoquinoline-1(2H)-thione]
Ki Ratio (ER-α/ER-β) [1]: 8
inhibition at 0.1 µM [1]: 80.7%
ER-β agonist activity [3]: ER-β agonists; also recorded: ER-β agonist activity
activation at 0.1 µM [3, 8]: 85%
inhibition at 0.1 µM [2]: 25.8%
Estradiol activity at 100 nM of NRBA, ER-α [4]: 45%

COc1cc(O)c2c(=O)n(-c3ccc(O)cc3)ccc2c1C#N [12q, 8-hydroxy-2-(4-hydroxyphenyl)-6-methoxy-1-oxo-1,2-dihydroisoquinoline-5-carbonitrile]
activation at 0.1 µM [3, 8]: 10%
Estradiol activity at 100 nM of NRBA, ER-α [4]: 25%

Oc1ccc(-n2cc(Br)c3cc(O)ccc3c2=S)cc1 [12r, 4-bromo-6-hydroxy-2-(4-hydroxyphenyl)isoquinoline-1(2H)-thione]
inhibition at 0.1 µM [1]: 75.5%
inhibition at 0.1 µM [2]: 35.7%

O=c1c2c(O)cc(O)cc2ccn1-c1ccc(O)c(F)c1 [12s, 2-(3-fluoro-4-hydroxyphenyl)-6,8-dihydroxyisoquinolin-1(2H)-one]
Ki Ratio (ER-α/ER-β) [1]: 25
inhibition at 0.1 µM [1]: 52.8%
ER-β agonist activity [3]: ER-β agonist activity
activation at 0.1 µM [3, 8]: 76.9%
inhibition at 0.1 µM [2]: 4.5%
Estradiol activity at 100 nM of NRBA, ER-α [4]: 29%

COc1cc(O)c2c(=O)n(-c3ccc(O)cc3)cc(Br)c2c1 [12v, 4-bromo-8-hydroxy-2-(4-hydroxyphenyl)-6-methoxyisoquinolin-1(2H)-one]
activation at 0.1 µM [3, 8]: 10%
Estradiol activity at 100 nM of NRBA, ER-α [4]: 17%

O=c1c2c(O)cc(O)cc2c(Br)cn1-c1ccc(O)c(F)c1 [12z, 4-bromo-6,8-dihydroxy-2-(3-fluoro-4-hydroxyphenyl)isoquinolin-1(2H)-one]
Mean of Maximal % Decrease of the PE constriction of the aortic ring [5]: 83.58%
EC50 [5]: 15100 nM
Ki Ratio (ER-α/ER-β) [1]: 12
Ki [1]: 3 nM
inhibition at 0.1 µM [1]: 95.3%
EC50 ([6]; Rattus norvegicus): 25000 nM
ER-β agonist activity [3]: ER-β agonist activity
inhibition at 0.1 µM [2]: 52.8%
Prevention of ROS formation / oxidative stress [7]: able to prevent ROS formation as well as estradiol; also recorded: protected ARPE-19 cells from oxidative damage

N#Cc1cc(O)cc2c(Br)cn(-c3ccc(O)cc3)c(=O)c12 [14k, 4-bromo-6-hydroxy-2-(4-hydroxyphenyl)-1-oxo-1,2-dihydroisoquinoline-8-carbonitrile]
Ki [1]: 46 nM
Ki [2]: > 394 nM

C=Cc1cn(-c2ccc(O)cc2)c(=O)c2c(O)cc(O)cc12 [14l, 6,8-dihydroxy-2-(4-hydroxyphenyl)-4-vinylisoquinolin-1(2H)-one]
Mean of Maximal % Decrease of the PE constriction of the aortic ring [5]: 45.01%
EC50 [5]: 19800 nM
EC50 ([6]; Rattus norvegicus): 9630 nM
Proliferation of RASMC [6]: inhibited the proliferation of RASMC in a dose-dependent manner
activation at 0.1 µM ([3]; read-out: Estradiol activity at 100 nM of NRBA, ER-β, 100 nM compound compared to 1 nM estradiol): 52.7%
Inhibition of ROS formation [7]: more than 50%
Prevention of ROS formation / oxidative stress [7]: protected ARPE-19 cells from oxidative damage
Estradiol activity at 100 nM of NRBA, ER-α [4]: 50%

COc1ccc(-c2cn(-c3ccc(O)cc3)c(=O)c3ccc(O)cc23)cc1 [15b, 6-hydroxy-2-(4-hydroxyphenyl)-4-(4-methoxyphenyl)isoquinolin-1(2H)-one]
Ki Ratio (ER-α/ER-β) [1]: 8.3

C=Cc1cn(-c2ccc(O)c(F)c2)c(=O)c2c(O)cc(O)cc12 [15c, 2-(3-fluoro-4-hydroxyphenyl)-6,8-dihydroxy-4-vinylisoquinolin-1(2H)-one]
Ki Ratio (ER-α/ER-β) [1]: 51.7
Ki [1]: 3.96 nM
Ki [2]: 205 nM

COc1ccc(-c2cn(-c3ccc(O)cc3)c(=O)c3c(O)cc(O)cc23)cc1 [15g, 6,8-dihydroxy-2-(4-hydroxyphenyl)-4-(4-methoxyphenyl)isoquinolin-1(2H)-one]
Ki [1]: 0.48 nM

O=c1c2c(O)cc(O)cc2c(-c2ccccc2)cn1-c1ccc(O)cc1 [15h, 6,8-dihydroxy-2-(4-hydroxyphenyl)-4-phenylisoquinolin-1(2H)-one]
Ki Ratio (ER-α/ER-β) [1]: 41.1
Ki [2]: 124 nM

C/C=C/c1cn(-c2ccc(O)cc2)c(=O)c2c(O)cc(O)cc12 [15i, (E)-6,8-dihydroxy-2-(4-hydroxyphenyl)-4-(prop-1-enyl)isoquinolin-1(2H)-one]
Ki Ratio (ER-α/ER-β) [1]: 61.4
Ki [2]: 102 nM

COc1ccc(-c2coc3cc(O)cc(O)c3c2=O)cc1 [Biochanin A, reference compound]
Proliferation of RASMC [6]: inhibited the proliferation of RASMC in a dose-dependent manner
EC50 [6]: 9790 nM
